Test results as given in patent publication US11384063B2, “Modulators of estrogen receptor proteolysis and associated methods of use” (Arvinas Operations, Inc., priority 2017, dated 2022).
pIC50: −log10 of the molar value.

Tests used:
ERα [1] = molecular target: T1, ERα (Homo sapiens, UniProt P03372); test: ERE luciferase reporter gene assay in T47D-KBluc cells (target engagement); assay type: cell-based; parameters: T47D human breast cancer cells stably transfected with estrogen responsive element/promoter/luciferase reporter gene; host or cells: T47D-KBluc cells; conditions: 10% FBS, 24 hours, Table 2 VHL centric PROTACs, read-out: IC50
T1 sequence (P03372 1-595): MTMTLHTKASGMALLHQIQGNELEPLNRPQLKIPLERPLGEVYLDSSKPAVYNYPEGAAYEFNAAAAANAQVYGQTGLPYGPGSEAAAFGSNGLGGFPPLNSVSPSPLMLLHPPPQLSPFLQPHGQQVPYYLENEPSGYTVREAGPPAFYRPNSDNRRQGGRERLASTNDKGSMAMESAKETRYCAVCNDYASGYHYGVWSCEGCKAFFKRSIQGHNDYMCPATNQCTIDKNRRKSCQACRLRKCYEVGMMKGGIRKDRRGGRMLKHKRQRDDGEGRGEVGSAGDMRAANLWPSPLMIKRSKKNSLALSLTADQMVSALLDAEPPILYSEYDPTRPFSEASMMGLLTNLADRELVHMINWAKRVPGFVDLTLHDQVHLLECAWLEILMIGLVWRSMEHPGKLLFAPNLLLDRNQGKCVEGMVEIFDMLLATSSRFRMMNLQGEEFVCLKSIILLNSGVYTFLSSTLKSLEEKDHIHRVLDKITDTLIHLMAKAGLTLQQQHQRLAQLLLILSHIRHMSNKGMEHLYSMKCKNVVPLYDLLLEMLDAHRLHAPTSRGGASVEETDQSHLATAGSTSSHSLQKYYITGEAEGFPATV
In short: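 PROTACs were tested at 12 concentrations from 300 nM down to 2 pM in 3-fold steps for 24 h on T47D-KBluc cells with a stable ERE-driven luciferase. Medium was RPMI with 10% FBS, measured at 10 pM estrogen. IC50 came from luminescence after lysis, in duplicate.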

ERα [2] = molecular target: T1, ERα; test: Estrogen receptor-alpha (ERα) degradation assay in MCF-7 cells using western blot; assay type: cell-based; parameters: assessed for their activity in degrading ERα in MCF-7 cells via western blot; endogenous in cells; host or cells: MCF7 cells; conditions: ER-alpha degradation, MCF7 cells, 3 days of incubation
Experimental: Compounds prepared in this application were also analyzed for the degradation of ERα in MCF7 and T47D cells.
Estrogen Receptor-Alpha (ERα) Degradation Assay in MCF-7 Cells Using Western Blot Method for Table 4.
The exemplary novel ERα degraders were assessed for their activity in degrading ERα in MCF-7 cells via western blot. The assay was carried out in the presence of 10% fetal bovine serum (FBS) or high percentage of human or mouse serum.
MCF7 cells were grown in DMEM/F12 with 10% fetal bovine serum and seeded at 24,000 cells per well in 100 μl into 96-well clear tissue culture plates. The following day, the cells were treated with PROTACs in a […] concentration curve with 100 nM being the top concentration and serial dilutions to make the other concentrations (30 nM, 10 nM, 3 nM, 1 nM, and 0.3 nM). At all concentrations, 0.01% DMSO is the final concentration in the well. The following day, the plates are aspirated, washed with 50 μl of cold PBS. The cells are lysed with 50 μl/well 4° C. Cell Lysis Buffer (Catalog #9803; Cell Signaling Technology, Danvers, Mass.) (20 mM Tris-HCL (pH 7.5), 150 mM NaCl, 1 mM […], 1 mM EGTA, 1% Triton, 2.5 mM sodium pyrophosphate, 1 mM B-glycerophosphate, 1 mM sodium vanadate, 1 ug/ml leupeptin). Lysates were clarified at 16,000×g for 10 minutes, and 2 μg of protein was subjected to SDS-PAGE analysis and followed by immunoblotting according to standard protocols. The antibodies used were ERα (Cell Signaling Technologies Catalog #8644), and Tubulin (Sigma Catalog #T9026; St. Louis, Mo.). Detection reagents were Clarity Western ECL substrate (Bio-Rad Catalog #170-5060; Hercules, Calif.).
Alternatively, MCF7 cells were grown in DMEM/F12 with 10% fetal bovine serum and seeded at 24,000 cells per well in 500 μl in 24-well clear tissue culture plates. The following day, the cells were treated with PROTACs in a 5-point concentration curve (100 nM, 33 nM, 11 nM, 3.7 nM, and 1.2 nM) in the presence of 0.01% DMSO. After 72 hours, the wells are aspirated and washed with 500 μl of PBS. The cells are lysed with 100 μl/well 4° C. Cell Lysis Buffer (Catalog #9803; Cell Signaling Technology, Danvers, M A) (20 mM Tris-HCL (pH 7.5), 150 mM NaCl, 1 mM Na2EDTA, 1 mM EGTA, 1% Triton, 2.5 mM sodium pyrophosphate, 1 mM B-glycerophosphate, 1 mM sodium vanadate, 1 ug/ml leupeptin). Lysates were clarified at 16,000×g for 10 minutes, and 2 μg of protein was subjected to SDS-PAGE analysis and followed by immunoblotting according to standard protocols. The antibodies used were ER(X (Cell Signaling Technologies Catalog #8644), and Tubulin (Sigma Catalog #T9026; St. Louis, Mo.). Detection reagents were Clarity Western ECL substrate (Bio-Rad Catalog #170-5060; Hercules, Calif.).

pIC50 (ERα [1])	DC50 (ERα [2]) [nM]	Dmax (ERα [2]) [%]	SMILES
7.86	10 to 100	> 75	Cc1ncsc1-c1ccc(CNC(=O)[C@@H]2C[C@@H](O)CN2C(=O)[C@@H](NC(=O)CN2CCN(CCOCCOc3ccc(Oc4c(-c5ccc(Br)cc5)sc5cc(O)ccc45)cc3)CC2)C(C)(C)C)cc1 [Compound 158, (2S,4R)-1-[(2S)-2-[2-(4-[2-[2-(4-[[2-(4-bromophenyl)-6-hydroxy-1-benzothiophen-3-yl]oxy]phenoxy)ethoxy]ethyl]piperazin-1-yl)acetamido]-3,3-dimethylbutanoyl]-4-hydroxy-N-[[4-(4-methyl-1,3-thiazol-5-yl)phenyl]methyl]pyrrolidine-2-carboxamide]
8.20	1 to 10	> 75	Cc1ncsc1-c1ccc(CNC(=O)[C@@H]2C[C@@H](O)CN2C(=O)[C@@H](NC(=O)CN2CCC(N3CC(OCCOc4ccc(Oc5c(-c6ccc(Br)cc6)sc6cc(O)ccc56)cc4)C3)CC2)C(C)(C)C)cc1 [Compound 160, (2S,4R)-1-[(2S)-2-[2-(4-[3-[2-(4-[[2-(4-bromophenyl)-6-hydroxy-1-benzothiophen-3-yl]oxy]phenoxy)ethoxy]azetidin-1-yl]piperidin-1-yl)acetamido]-3,3-dimethylbutanoyl]-4-hydroxy-N-[[4-(4-methyl-1,3-thiazol-5-yl)phenyl]methyl]pyrrolidine-2-carboxamide]

Second part, the compound before the results:

SMILES	pIC50 (ERα [1])	DC50 (ERα [2]) [nM]	Dmax (ERα [2]) [%]
C[C@H](NC(=O)[C@@H]1C[C@@H](O)CN1C(=O)[C@@H](NC(=O)Cc1ccc(-c2ccn(CCOc3ccc(Oc4c(-c5ccc(F)cc5)sc5cc(O)ccc45)cc3)n2)cc1)C(C)(C)C)c1ccc(Cl)cc1 [Compound 150, (2S,4R)-N-[(1S)-1-(4-chlorophenyl)ethyl]-1-[(2S)-2-[2-(4-[1-[2-[4-[[2(4-fluorophenyl)-6-hydroxy-1-benzothiophen-3-yl]oxy]phenoxy)ethyl]-1H-pyrazol-3-yl]phenyl)acetamido]-3,3-dimethylbutanoyl]-4-hydroxypyrrolidine-2-carboxamide]	7.77	10 to 100	> 75
Cc1ncsc1-c1ccc(CNC(=O)[C@@H]2C[C@@H](O)CN2C(=O)[C@@H](NC(=O)COCCN2CCN(CCOc3ccc(Oc4c(-c5ccc(Cl)cc5)sc5cc(O)ccc45)cc3)CC2)C(C)(C)C)cc1 [Compound 151, (2S,4R)-1-[(2S)-2-[2-(2-[4-[2-(4-[[2-(4-chlorophenyl)-6-hydroxy-1-benzothiophen-3-yl]oxy]phenoxy)ethyl]piperazin-1-yl]ethoxy)acetamido]-3,3-dimethylbutanoyl]-4-hydroxy-N-[[4-(4-methyl-1,3-thiazol-5-yl)phenyl]methyl]pyrrolidine-2-carboxamide]	9.40	< 1	> 75
Cc1ncsc1-c1ccc([C@H](C)NC(=O)[C@@H]2C[C@@H](O)CN2C(=O)[C@@H](NC(=O)COCCN2CCN(CCOc3ccc(Oc4c(-c5ccc(Br)cc5)sc5cc(O)ccc45)cc3)CC2)C(C)(C)C)cc1 [Compound 153, (2S,4R)-1-[(2S)-2-[2-(2-[4-[2-(4-[[2-(4-bromophenyl)-6-hydroxy-1-benzothiophen-3-yl]oxy]phenoxy)ethyl]piperazin-1-yl]ethoxy)acetamido]-3,3-dimethylbutanoyl]-4-hydroxy-N-[(1S)-1-[4-(4-methyl-1,3-thiazol-5-yl)phenyl]ethyl]pyrrolidine-2-carboxamide]	8.49	1 to 10	> 75
